Results from patent US20220087987A1, “A METHOD FOR TREATING SWI/SNF COMPLEX-DEFICIENT CANCERS COMPRISING GLUTATHIONE (GSH) METABOLIC PATHWAY INHIBITOR” (National Cancer Center, priority 2018, published 2022).
Where two headings read alike, the source gives them in different places.

What was measured:
[1] = tested on: ARID1A-WT HCT116 cells; test: Drug library screen, cell viability (CellTiter-Glo); assay type: cell-based, human
Protocol: (§1) ARID1A-WT and ARID1A-KO HCT116 cancer cells were used for screening assays. […] Cell viability was assessed after 5 days using the CellTiter-Glo Luminescent Cell Viability Assay (Promega). Luminescence was measured using an Envision Multi-label plate reader (PerkinElmer). The luminescence reading was used to determine the cell viability relative to that of cells treated with solvent (DMSO). Candidate compounds were considered if viability of ARID1A-KO cells was less than […] was more than 80%.

[2] = tested on: ARID1A-KO HCT116 cells; test: as above; assay type: cell-based, human
Protocol: as §1

[3] = HCT116 ARID1A-WT, 10 μM for 5 days, relative to cells treated with solvent (DMSO)
[4] = HCT116 ARID1A-KO, 10 μM for 5 days, relative to cells treated with solvent (DMSO)

| Compound | Cell viability, WT [1, 3] | Cell viability, KO [2, 4] | Cell viability, WT [1] | Cell viability, KO [2] |
| --- | --- | --- | --- | --- |
| indirubin-3′-monoxime | 105.9954 | 124.9767 |  |  |
| CCC(=C/[C@H](C)C/C=C/C(C)=C/[C@@H](C)C(=O)[C@@H](C)[C@H](O)[C@@H](C)C/C(C)=C/C(=O)O)/C=C/[C@@H]1OC(=O)C=C[C@@H]1C [Leptomycin B*, Leptomycin B] | 5.031 | 4.969 |  |  |
| Nc1ncnc2c1nc(Sc1ccc(Cl)cc1)n2[C@@H]1O[C@@H]2COP(O)(=S)O[C@H]2[C@H]1O (stereo partly shown) [Rp-8-CPT-cOMPS] | 110.9572 | 135.7084 |  |  |
| C1=Cc2nc1cc1ccc([nH]1)c(-c1ccccc1)c1nc(cc3ccc([nH]3)c2-c2ccccc2)C=C1 [5,15-DPP] | 90.1195 | 98.73 |  |  |
| Cc1cccc(-c2nn(C(=S)Nc3ccccc3)cc2-c2ccnc3ccccc23)n1 [A83-01] | 77.92 | 104.8454 |  |  |
| Akt Inhibitor IV | 3.276 | 5.523 |  |  |
| O=c1cc(N2CCOCC2)oc2c(-c3ccccc3)cccc12 [LY294002] | 127.2893 | 119.3969 |  |  |
| C[n+]1ccc(-c2c3nc(c(-c4cc[n+](C)cc4)c4ccc([nH]4)c(-c4cc[n+](C)cc4)c4ccc([nH]4)c(-c4cc[n+](C)cc4)c4nc2C=C4)C=C3)cc1 [TMPyP4] | 19.35 | 32.37 |  |  |
| Cc1[nH]c(/C=C2\C(=O)Nc3ccc(S(=O)(=O)N(C)c4cccc(Cl)c4)cc32)c(C)c1C(=O)N1CCN(C)CC1 [SU11274] | 71.94 | 82.98 |  |  |
| O=S(=O)(O)c1cc(N=C=S)ccc1C=Cc1ccc(N=C=S)cc1S(=O)(=O)O [DIDS] | 97.04 | 107.2053 |  |  |
| O=C1Cc2c([nH]c3ccc(Br)cc23)-c2ncccc2N1 [1-Azakenpaullone] | 95.89 | 114.0704 |  |  |
| O=C(Nc1ccc([N+](=O)[O-])cc1O)Nc1ccccc1Br [SB 225002] | 5.2146 | 8.056 |  |  |
| O=C1Nc2cc(Br)ccc2/C1=C1/Nc2ccccc2/C1=N\O [BIO] | 87.19 | 107.4068 |  |  |
| CN(C)CCCCC(=O)Nc1ccc(NC(=S)NC(=O)c2ccc(C(C)(C)C)cc2)cc1 [Tenovin-6] | 2.514 | 5.579 |  |  |
| N#C/C(=C\c1ccc2oc(=O)[nH]c2c1)C(=O)c1ccc(O)c(O)c1 [AGL 2263] | 148.6873 | 172.9001 |  |  |
| COc1cc(/C=C(\C#N)C(N)=O)cc(CSc2nc3ccccc3s2)c1O [AG825] | 85.83 | 80.86 |  |  |
| COc1ccc2c3c([nH]c2c1)[C@H](C=C(C)C)N1C(=O)[C@@H]2CCCN2C(=O)[C@@H]1C3 [Fumitremorgin C] | 90.41 | 97.39 |  |  |
| O=C(Cc1ccccc1)Nc1c2c(nc3ccccc13)N(Cc1ccccc1)CC2 [PGP-4008] | 106.0362 | 117.1066 |  |  |
| Cytostatin | 10.14 | 7.493 |  |  |
| O=C(Nc1ccc2c(O)cc(S(=O)(=O)O)cc2c1)Nc1ccc2c(O)cc(S(=O)(=O)O)cc2c1 [AMI-1] |  | 85.52 |  |  |
| C[C@H](NC(=O)Cc1cc(F)cc(F)c1)C(=O)N[C@H](C(=O)OC(C)(C)C)c1ccccc1 [DAPT] | 93.12 | 103.8309 |  |  |
| CCCCCCCC(=O)OCCOC(=O)CCCCCCC [Dioctanoylglycol] | 99.78 | 109.4112 |  |  |

| Compound | Cell viability, WT [1, 3] | Cell viability, KO [2, 4] | Cell viability, WT [1] | Cell viability, KO [2] |
| --- | --- | --- | --- | --- |
| COc1ccc(OC)c2c(=S)c3ccccc3[nH]c12 [NSC625987] | 136.0173 | 161.7582 |  |  |
| O=S(=O)(c1cccc2c(I)cccc12)N1CCCNCC1 [ML-7] | 76.67 | 78.88 |  |  |
| COC(=O)CNC(=O)C(=O)OC [Dimethyloxalylglycine] | 95.769 | 119.9436 |  |  |
| O=[N+]([O-])c1ccc(-c2nc(-c3ccc(F)cc3)c(-c3ccncc3)[nH]2)cc1 [PD169316] | 161.5329 | 151.5532 |  |  |
| COc1ccc(C[C@H]2NC[C@H](O)[C@H]2OC(C)=O)cc1 [anisomycin] |  | 7.327 |  |  |
| O=C1C(SCCO)=C(SCCO)C(=O)c2ccccc21 [NSC95397] | 41.93 | 15.8033 |  |  |
| CC(C)c1ccc2c(c1)c(SC(C)(C)C)c(CC(C)(C)C(=O)O)n2Cc1ccc(Cl)cc1 [MK 886] | 116.7328 | 112.1339 |  |  |
| CCCC[C@@H](C)/C=C(C)/C=C(\C)C(=O)NC1=C[C@@](O)(/C=C/C=C/C=C/C(=O)NC2=C(O)CCC2=O)[C@@H]2O[C@@H]2C1=O [Manumycin A] | 61.22 | 52.57 |  |  |
| CCCCCCCCCCCCCCCc1cccc(O)c1C(=O)O [Anacardic acid] | 102.71 | 112.6464 |  |  |
| CC1=NN(c2ccc(C(=O)O)cc2)C(=O)/C1=C\c1ccc(-c2cc(C)c(C)cc2[N+](=O)[O-])o1 [C646] |  |  | 93.09 | 115.173 |
| CCCC[C@@H](C)[C@@H](OC(=O)C[C@@H](CC(=O)O)C(=O)O)[C@H](C[C@@H](C)C[C@H](O)CCCC[C@@H](O)C[C@H](O)[C@H](C)N)OC(=O)C[C@@H](CC(=O)O)C(=O)O [Fumonisin B1] | 87.23 | 83.33 |  |  |
| C=C1[C@@H](C)[C@H]2[C@H](Cc3ccccc3)NC(=O)[C@]23[C@H](OC(C)=O)/C=C/[C@@](C)(O)C(=O)[C@@H](C)C/C=C/[C@H]3[C@@H]1O [Cytochalasin D] | 63 | 59.86 |  |  |
| CCCCN1C(=O)C2Cc3c([nH]c4ccccc34)C(c3cccc(O)c3)N2C1=O (stereo not shown) [HR22C16] | 12.52 | 17.39 |  |  |
| O=C(NCc1ccccc1)c1csc(Nc2ccncn2)n1 [Thiazovivin] | 50.22 | 30.49 |  |  |
| Cc1ccc2nc(NC(=O)CSc3nc4c(c(=O)n3-c3ccccc3)SCC4)sc2c1 [IWP-2] | 78.56 | 90.8 |  |  |
| COc1cc2ncnc(Nc3ccc(NC(=O)c4ccccc4)cc3)c2cc1OC [Aurora kinase inhibitor II] | 53.336 | 60.46 |  |  |
| NC1CC1c1cc(F)cc(F)c1OCc1ccccc1 (stereo not shown) [S2101 (LSD1 inhibitor II)] | 80.52 | 83.95 |  |  |
| CC(C)(C)c1cc(C=C(C#N)C#N)cc(Br)c1O [AG1024] | 161.1636 | 183.5477 |  |  |
| C/C(O)=C(\C#N)C(=O)Nc1cc(Br)ccc1Br [LFM-A13] | 93.88 | 106.7176 |  |  |
| C[S+]([O-])c1ccc(-c2nc(-c3ccc(F)cc3)c(-c3ccncc3)[nH]2)cc1 (stereo not shown) [SB 203580] | 163.1226 | 176.0802 |  |  |
| O=C1Nc2ccccc2C2(CCN(CCc3ccc(C(F)(F)F)cc3)CC2)O1 [RS 102895] | 37.34 | 47.58 |  |  |
| COC(=O)[C@H](CC(C)C)NC(=O)c1ccc(NC[C@@H](N)CS)cc1-c1ccccc1 [GGTI-286] |  | 123.5827 |  |  |
